Reference: ChEMBL document CHEMBL3774345, “Synthesis of new diarylamides with pyrimidinyl pyridine scaffold and evaluation of their anti-proliferative effect on cancer cell lines” (Bioorg Med Chem Lett, 2016)

Key:
Format in all cases: functional
CCRF-CEM = assay: Cytotoxicity against human CCRF-CEM cells assessed as cell growth at 10 uM after 24 hrs by SRB assay; conditions: read-out: Activity
Malme-3M = assay: Cytotoxicity against human MALME-3M cells assessed as cell growth at 10 uM after 24 hrs by SRB assay; conditions: read-out: Activity
[1] = Cytotoxicity against human OVCAR8 cells assessed as cell growth at 10 uM after 24 hrs by SRB assay; conditions: OVCAR-8, 24 h, read-out: Activity
NCI-H522 = assay: Cytotoxicity against human NCI-H522 cells assessed as cell growth at 10 uM after 24 hrs by SRB assay; conditions: NCI-H522, 24 h, read-out: Activity
[2] = Cytotoxicity against human DU145 cells assessed as cell growth at 10 uM after 24 hrs by SRB assay; conditions: DU-145, 24 h, read-out: Activity
[3] = Cytotoxicity against human SNB19 cells assessed as cell growth at 10 uM after 24 hrs by SRB assay; conditions: SNB-19, 24 h, read-out: Activity
[4] = Cytotoxicity against human OVCAR3 cells assessed as cell growth at 10 uM after 24 hrs by SRB assay; conditions: OVCAR-3, 24 h, read-out: Activity
[5] = Cytotoxicity against human NCI-ADR-RES cells assessed as cell growth at 10 uM after 24 hrs by SRB assay; conditions: read-out: Activity
NCI-H226 = assay: Cytotoxicity against human NCI-H226 cells assessed as cell growth at 10 uM after 24 hrs by SRB assay; conditions: NCI-H226, 24 h, read-out: Activity
A498 = assay: Cytotoxicity against human A498 cells assessed as cell growth at 10 uM after 24 hrs by SRB assay; conditions: A498, 24 h, read-out: Activity
A549 = assay: Cytotoxicity against human A549 cells assessed as cell growth at 10 uM after 24 hrs by SRB assay; conditions: A549, 24 h, read-out: Activity
[6] = Cytotoxicity against human SF295 cells assessed as cell growth at 10 uM after 24 hrs by SRB assay; conditions: SF-295, 24 h, read-out: Activity
[7] = Cytotoxicity against human PC3 cells assessed as cell growth at 10 uM after 24 hrs by SRB assay; conditions: PC-3, 24 h, read-out: Activity
NCI-H322M = assay: Cytotoxicity against human NCI-H322M cells assessed as cell growth at 10 uM after 24 hrs by SRB assay; conditions: read-out: Activity
T47D = assay: Cytotoxicity against human T47D cells assessed as cell growth at 10 uM after 24 hrs by SRB assay; conditions: read-out: Activity
MDA-MB-435 = assay: Cytotoxicity against human MDA-MB-435 cells assessed as cell growth at 10 uM after 24 hrs by SRB assay; conditions: MDA-MB-435, 24 h, read-out: Activity
[8] = Cytotoxicity against human TK10 cells assessed as cell growth at 10 uM after 24 hrs by SRB assay; conditions: TK-10, 24 h, read-out: Activity
[9] = Cytotoxicity against human HOP62 cells assessed as cell growth at 10 uM after 24 hrs by SRB assay; conditions: HOP-62, 24 h, read-out: Activity
K562 = assay: Cytotoxicity against human K562 cells assessed as cell growth at 10 uM after 24 hrs by SRB assay; conditions: K562, 24 h, read-out: Activity
MDA-MB-231 = assay: Cytotoxicity against human MDA-MB-231 cells assessed as cell growth at 10 uM after 24 hrs by SRB assay; conditions: MDA-MB-231, 24 h, read-out: Activity
KM12 = assay: Cytotoxicity against human KM12 cells assessed as cell growth at 10 uM after 24 hrs by SRB assay; conditions: KM12, 24 h, read-out: Activity
[10] = Cytotoxicity against human OVCAR4 cells assessed as cell growth at 10 uM after 24 hrs by SRB assay; conditions: OVCAR-4, 24 h, read-out: Activity
[11] = Cytotoxicity against human OVCAR5 cells assessed as cell growth at 10 uM after 24 hrs by SRB assay; conditions: OVCAR-5, 24 h, read-out: Activity
[12] = Cytotoxicity against human SF268 cells assessed as cell growth at 10 uM after 24 hrs by SRB assay; conditions: SF-268, 24 h, read-out: Activity
[13] = Cytotoxicity against human SKOV3 cells assessed as cell growth at 10 uM after 24 hrs by SRB assay; conditions: SK-OV-3, 24 h, read-out: Activity
[14] = Cytotoxicity against human NCI60 cells assessed as growth inhibition at 10 uM after 24 hrs by SRB assay; conditions: NCI60, 24 h
HT-29 = assay: Cytotoxicity against human HT-29 cells assessed as cell growth at 10 uM after 24 hrs by SRB assay; conditions: HT-29, 24 h, read-out: Activity
786-0 = assay: Cytotoxicity against human 786-0 cells assessed as cell growth at 10 uM after 24 hrs by SRB assay; conditions: 786-0, 24 h, read-out: Activity
[15] = Cytotoxicity against human IGROV1 cells assessed as cell growth at 10 uM after 24 hrs by SRB assay; conditions: IGROV-1, 24 h, read-out: Activity
[16] = Cytotoxicity against human HCC2998 cells assessed as cell growth at 10 uM after 24 hrs by SRB assay; conditions: HCC 2998, 24 h, read-out: Activity
[17] = Cytotoxicity against human Caki1 cells assessed as cell growth at 10 uM after 24 hrs by SRB assay; conditions: CAKI-1, 24 h, read-out: Activity
[18] = Cytotoxicity against human RPMI8226 cells assessed as cell growth at 10 uM after 24 hrs by SRB assay; conditions: RPMI-8226, 24 h, read-out: Activity
[19] = Cytotoxicity against human RXF393 cells assessed as cell growth at 10 uM after 24 hrs by SRB assay; conditions: RXF 393, 24 h, read-out: Activity
[20] = Cytotoxicity against human HCT116 cells assessed as cell growth at 10 uM after 24 hrs by SRB assay; conditions: HCT-116, 24 h, read-out: Activity
SN12C = assay: Cytotoxicity against human SN12C cells assessed as cell growth at 10 uM after 24 hrs by SRB assay; conditions: read-out: Activity
[21] = Cytotoxicity against human COLO205 cells assessed as cell growth at 10 uM after 24 hrs by SRB assay; conditions: COLO 205, 24 h, read-out: Activity
M14 = assay: Cytotoxicity against human M14 cells assessed as cell growth at 10 uM after 24 hrs by SRB assay; conditions: M14, 24 h, read-out: Activity
U-251 = assay: Cytotoxicity against human U251 cells assessed as cell growth at 10 uM after 24 hrs by SRB assay; conditions: U-251, 24 h, read-out: Activity
MCF7 = assay: Cytotoxicity against human MCF7 cells assessed as cell growth at 10 uM after 24 hrs by SRB assay; conditions: MCF7, 24 h, read-out: Activity

| SMILES | growth at 10 µM (CCRF-CEM) [%] | growth at 10 µM (Malme-3M) [%] | growth at 10 µM [1] [%] | growth at 10 µM (NCI-H522) [%] | growth at 10 µM [2] [%] | growth at 10 µM [3] [%] | growth at 10 µM [4] [%] | growth at 10 µM [5] [%] | growth at 10 µM (NCI-H226) [%] | growth at 10 µM (A498) [%] | growth at 10 µM (A549) [%] | growth at 10 µM [6] [%] | growth at 10 µM [7] [%] | growth at 10 µM (NCI-H322M) [%] | growth at 10 µM (T47D) [%] | growth at 10 µM (MDA-MB-435) [%] | growth at 10 µM [8] [%] | growth at 10 µM [9] [%] | growth at 10 µM (K562) [%] | growth at 10 µM (MDA-MB-231) [%] | other results |
| --- | --- | --- | --- | --- | --- | --- | --- | --- | --- | --- | --- | --- | --- | --- | --- | --- | --- | --- | --- | --- | --- |
| COCCCNc1nc(NC(=O)c2cc(OC)cc(OC)c2)cc(-c2cccnc2)n1 | 91.7 | 112 | 79.3 | 76.5 | 101 | 98.3 | 113 | 83.5 | 96.5 | 67.7 | 91.2 | 100 | 87.3 | 92.8 | 63.8 | 100 | 86.7 | 91.3 | 86.1 | 69.1 | growth at 10 µM (KM12): 103%; growth at 10 µM [10]: 108%; growth at 10 µM [11]: 95.7%; growth at 10 µM [12]: 100%; growth at 10 µM [13]: 105%; inhibition at 10 µM [14]: 8.06%; growth at 10 µM (HT-29): 95.5%; growth at 10 µM (786-0): 83.3%; growth at 10 µM [15]: 102%; growth at 10 µM [16]: 110%; growth at 10 µM [17]: 99.4%; growth at 10 µM [18]: 69.3%; growth at 10 µM [19]: 97.7%; growth at 10 µM [20]: 90.3%; growth at 10 µM (SN12C): 95.3%; growth at 10 µM [21]: 109%; growth at 10 µM (M14): 107%; growth at 10 µM (U-251): 96.8%; growth at 10 µM (MCF7): 97.8% |
| COCCCNc1nc(NC(=O)c2ccc(Cl)cc2C)cc(-c2cccnc2)n1 | 96.5 | 103 | 94.2 | 78.6 | 103 | 91.7 | 117 | 108 | 89.1 | 109 | 79.8 | 104 | 110 | 102 | 89.4 | 95.6 | 88.5 | 99.3 | 104 | 94 | growth at 10 µM (KM12): 104%; growth at 10 µM [10]: 106%; growth at 10 µM [11]: 91.6%; growth at 10 µM [12]: 104%; growth at 10 µM [13]: 98.4%; inhibition at 10 µM [14]: 0.78%; growth at 10 µM (HT-29): 105%; growth at 10 µM (786-0): 85.4%; growth at 10 µM [15]: 106%; growth at 10 µM [16]: 103%; growth at 10 µM [17]: 99.5%; growth at 10 µM [18]: 90.2%; growth at 10 µM [19]: 91.1%; growth at 10 µM [20]: 101%; growth at 10 µM (SN12C): 111%; growth at 10 µM [21]: 111%; growth at 10 µM (M14): 103%; growth at 10 µM (U-251): 112%; growth at 10 µM (MCF7): 81.1% |
| COCCCNc1nc(NC(=O)c2cc(Br)cc(C(F)(F)F)c2)cc(-c2cccnc2)n1 | 80.8 | 99.7 | 87.5 | 83.5 | 100 | 95.9 | 109 | 99.5 | 91.8 | 76.2 | 82 | 89.2 | 70.6 | 99.9 | 65 | 88.4 | 95.8 | 91.8 | 73.3 | 75.8 | growth at 10 µM (KM12): 105%; growth at 10 µM [10]: 92.3%; growth at 10 µM [11]: 100%; growth at 10 µM [12]: 90.5%; growth at 10 µM [13]: 92.2%; inhibition at 10 µM [14]: 11.3%; growth at 10 µM (HT-29): 83.7%; growth at 10 µM (786-0): 85.8%; growth at 10 µM [15]: 91.3%; growth at 10 µM [16]: 114%; growth at 10 µM [17]: 81.4%; growth at 10 µM [18]: 65.6%; growth at 10 µM [19]: 103%; growth at 10 µM [20]: 85.6%; growth at 10 µM (SN12C): 89.1%; growth at 10 µM [21]: 96.4%; growth at 10 µM (M14): 96.5%; growth at 10 µM (U-251): 85.9%; growth at 10 µM (MCF7): 83.8% |
